Calls of active or inactive are those of the source. No cut-off for these calls is given here.
How the values were obtained:
[1] = target: T1, Gamma-aminobutyric acid receptor subunit rho-1 (Homo sapiens, UniProt P24046); assay: Antagonist activity at human recombinant GABAc rho-1 receptor expressed in Xenopus laevis oocytes assessed as inhibition of GABA-induced current by two electrode voltage clamp technique; assay type: functional, cell-based; conditions: for Kb: Oocyte
[2] = target: T2, GABA-B receptor (Homo sapiens) (UniProt Q9UBS5+O75899); assay: Antagonist activity at human recombinant GABAb 1b/2 receptor expressed in Xenopus laevis oocytes co-expressing GIRK1/4 assessed as inhibition of GABA-induced current at 300 uM by two electrode voltage clamp technique; assay type: functional, cell-based; conditions: Oocyte
[3] = target: T3, GABA-A receptor; alpha-1/beta-2/gamma-2 (Homo sapiens) (UniProt P14867+P47870+P18507); assay: Antagonist activity at human recombinant GABAA alpha1beta2gamma2L receptor expressed in Xenopus laevis oocytes assessed as inhibition of GABA-induced current at 300 uM by two electrode voltage clamp technique; assay type: functional, cell-based; conditions: Oocyte
[4] = target: Gamma-aminobutyric acid receptor subunit rho-2 (Homo sapiens, UniProt P28476); assay: Antagonist activity at human recombinant GABAc rho-2 receptor expressed in Xenopus laevis oocytes assessed as inhibition of GABA-induced current by two electrode voltage clamp technique; assay type: functional, cell-based, Oocyte
Sequence of Gamma-aminobutyric acid receptor subunit rho-2 (P28476 whole entry): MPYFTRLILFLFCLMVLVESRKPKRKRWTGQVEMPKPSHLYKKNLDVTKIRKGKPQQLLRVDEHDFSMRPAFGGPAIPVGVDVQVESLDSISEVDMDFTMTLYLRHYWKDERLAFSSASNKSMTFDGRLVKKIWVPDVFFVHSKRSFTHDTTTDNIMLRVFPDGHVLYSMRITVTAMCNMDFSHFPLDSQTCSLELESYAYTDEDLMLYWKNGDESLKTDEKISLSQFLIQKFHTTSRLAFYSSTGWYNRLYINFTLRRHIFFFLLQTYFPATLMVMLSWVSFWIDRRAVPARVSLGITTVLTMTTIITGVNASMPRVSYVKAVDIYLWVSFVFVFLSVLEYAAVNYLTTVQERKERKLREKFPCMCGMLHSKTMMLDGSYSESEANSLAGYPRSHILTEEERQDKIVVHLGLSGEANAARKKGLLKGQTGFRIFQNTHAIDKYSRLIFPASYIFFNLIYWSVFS

[5] = target: T3, GABA-A receptor; alpha-1/beta-2/gamma-2 (Homo sapiens); assay: Antagonist activity at human recombinant GABAA alpha1beta2gamma2L receptor expressed in Xenopus laevis oocytes assessed as inhibition of GABA-induced current at 600 uM by two electrode voltage clamp technique; assay type: functional, cell-based; conditions: Oocyte
[6] = target: T2, GABA-B receptor (Homo sapiens); assay: […] activity at human recombinant GABAb 1b/2 receptor expressed in Xenopus laevis oocytes co-expressing GIRK1/4 assessed as inhibition of GABA-induced current by two electrode voltage clamp technique; assay type: functional, cell-based; conditions: Oocyte
[7] = target: T2, GABA-B receptor (Homo sapiens); assay: […] activity at human recombinant GABAb 1b/2 receptor expressed in Xenopus laevis oocytes co-expressing GIRK1/4 assessed as inhibition of GABA-induced current at 10 uM by two electrode voltage clamp technique; assay type: functional, cell-based; conditions: Oocyte
[8] = target: T2, GABA-B receptor (Homo sapiens); assay: […] activity at human recombinant GABAb 1b/2 receptor expressed in Xenopus laevis oocytes co-expressing GIRK1/4 assessed as inhibition of GABA-induced current at 600 uM by two electrode voltage clamp technique; assay type: functional, cell-based; conditions: Oocyte
[9] = target: GABA-B receptor (Homo sapiens, UniProt O75899+Q9UBS5); assay: Antagonist activity at human recombinant GABAb 1b/2 receptor expressed in Xenopus laevis oocytes co-expressing GIRK1/4 assessed as inhibition of GABA-induced current by two electrode voltage clamp technique; assay type: functional, cell-based, Oocyte
Sequence of GABA-B receptor (Q9UBS5 whole entry): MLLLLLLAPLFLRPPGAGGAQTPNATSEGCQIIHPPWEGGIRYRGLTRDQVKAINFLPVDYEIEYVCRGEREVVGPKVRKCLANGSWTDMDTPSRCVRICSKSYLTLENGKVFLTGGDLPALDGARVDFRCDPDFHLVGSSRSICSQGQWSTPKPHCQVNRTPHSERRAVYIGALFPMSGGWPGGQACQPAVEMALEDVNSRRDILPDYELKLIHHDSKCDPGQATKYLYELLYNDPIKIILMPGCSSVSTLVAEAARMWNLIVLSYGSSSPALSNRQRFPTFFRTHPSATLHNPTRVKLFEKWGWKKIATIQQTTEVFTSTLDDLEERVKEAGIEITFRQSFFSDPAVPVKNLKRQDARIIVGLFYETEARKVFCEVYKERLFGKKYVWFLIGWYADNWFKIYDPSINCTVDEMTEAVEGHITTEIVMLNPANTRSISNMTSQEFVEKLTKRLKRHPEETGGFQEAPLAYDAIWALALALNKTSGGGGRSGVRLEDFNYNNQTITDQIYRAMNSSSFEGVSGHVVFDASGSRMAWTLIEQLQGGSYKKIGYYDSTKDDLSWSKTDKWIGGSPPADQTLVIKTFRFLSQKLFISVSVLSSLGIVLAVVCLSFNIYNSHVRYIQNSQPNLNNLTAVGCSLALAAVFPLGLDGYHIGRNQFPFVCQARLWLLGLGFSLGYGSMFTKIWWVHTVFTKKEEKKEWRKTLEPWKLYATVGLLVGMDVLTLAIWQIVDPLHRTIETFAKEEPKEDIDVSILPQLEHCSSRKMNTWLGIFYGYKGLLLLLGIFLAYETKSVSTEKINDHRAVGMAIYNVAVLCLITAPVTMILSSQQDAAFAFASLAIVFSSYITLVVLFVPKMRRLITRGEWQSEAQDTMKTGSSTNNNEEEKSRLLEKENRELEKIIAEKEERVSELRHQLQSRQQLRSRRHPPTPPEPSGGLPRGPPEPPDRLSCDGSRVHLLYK
Sequence of GABA-B receptor (O75899 whole entry): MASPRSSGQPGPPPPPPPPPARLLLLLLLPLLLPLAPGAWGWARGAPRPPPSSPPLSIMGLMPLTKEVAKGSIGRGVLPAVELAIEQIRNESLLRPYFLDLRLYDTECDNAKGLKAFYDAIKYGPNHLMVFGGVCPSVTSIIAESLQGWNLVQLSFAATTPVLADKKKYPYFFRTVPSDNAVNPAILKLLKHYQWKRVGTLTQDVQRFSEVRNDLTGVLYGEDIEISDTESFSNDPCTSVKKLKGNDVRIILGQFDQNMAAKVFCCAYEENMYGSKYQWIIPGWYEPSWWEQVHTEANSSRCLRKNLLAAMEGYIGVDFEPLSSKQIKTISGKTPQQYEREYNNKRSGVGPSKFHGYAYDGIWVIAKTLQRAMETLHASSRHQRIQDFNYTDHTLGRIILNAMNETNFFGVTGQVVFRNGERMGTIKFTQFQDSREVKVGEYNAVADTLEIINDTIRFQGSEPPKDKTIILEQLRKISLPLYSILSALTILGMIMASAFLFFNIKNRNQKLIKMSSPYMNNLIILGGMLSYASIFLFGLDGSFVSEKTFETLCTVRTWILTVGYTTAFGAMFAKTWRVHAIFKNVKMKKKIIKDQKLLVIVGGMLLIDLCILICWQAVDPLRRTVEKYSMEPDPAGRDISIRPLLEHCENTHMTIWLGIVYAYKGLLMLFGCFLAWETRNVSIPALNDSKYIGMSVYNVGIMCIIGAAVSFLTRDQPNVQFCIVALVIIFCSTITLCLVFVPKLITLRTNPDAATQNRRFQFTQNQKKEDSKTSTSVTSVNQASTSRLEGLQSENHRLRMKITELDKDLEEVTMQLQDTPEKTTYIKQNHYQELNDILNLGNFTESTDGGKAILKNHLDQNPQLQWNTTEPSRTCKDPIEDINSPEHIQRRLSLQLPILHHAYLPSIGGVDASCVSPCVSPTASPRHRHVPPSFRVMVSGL

[10] = target: T1, Gamma-aminobutyric acid receptor subunit rho-1; assay: Antagonist activity at human recombinant GABAc rho-1 receptor expressed in Xenopus laevis oocytes assessed as inhibition of GABA-induced current at 100 uM by two electrode voltage clamp technique; assay type: functional, cell-based; conditions: Oocyte
[11] = target: T3, GABA-A receptor; alpha-1/beta-2/gamma-2 (Homo sapiens); assay: Antagonist activity at human recombinant GABAA alpha1beta2gamma2L receptor expressed in Xenopus laevis oocytes assessed as inhibition of GABA-induced current at 100 uM by two electrode voltage clamp technique; assay type: functional, cell-based; conditions: Oocyte
[12] = target: T1, Gamma-aminobutyric acid receptor subunit rho-1; assay: Antagonist activity at human recombinant GABAc rho-1 receptor expressed in Xenopus laevis oocytes assessed as inhibition of GABA-induced current at 600 uM by two electrode voltage clamp technique; assay type: functional, cell-based; conditions: Oocyte

T1 sequence (P24046 whole entry): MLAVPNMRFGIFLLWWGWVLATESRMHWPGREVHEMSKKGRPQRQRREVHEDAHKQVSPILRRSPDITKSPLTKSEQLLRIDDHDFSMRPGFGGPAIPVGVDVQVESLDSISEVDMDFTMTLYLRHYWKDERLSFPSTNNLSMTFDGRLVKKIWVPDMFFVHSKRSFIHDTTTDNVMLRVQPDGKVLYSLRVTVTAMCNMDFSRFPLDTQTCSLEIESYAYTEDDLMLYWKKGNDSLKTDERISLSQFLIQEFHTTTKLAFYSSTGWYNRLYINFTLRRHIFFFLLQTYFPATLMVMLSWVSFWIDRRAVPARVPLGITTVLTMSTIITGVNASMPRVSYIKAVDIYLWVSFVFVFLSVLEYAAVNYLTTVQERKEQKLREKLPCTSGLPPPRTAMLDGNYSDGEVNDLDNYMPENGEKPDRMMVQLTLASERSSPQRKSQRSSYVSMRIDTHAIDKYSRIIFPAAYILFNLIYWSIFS

Question: What does the source list for `CCCCP(=O)(O)C1=CC[C@H](N)C1`?
Answer: Kb [1]: 2.1 µM; inhibition [2]: 22.5%; inhibition [3]: 24.2%

Question: With `NCC1CCP(=O)(O)C1` (stereo not drawn) as the compound, how does the IC50 [1] read?
Answer: 19.9 µM

Question: What about the IC50 [4] of the same compound?
Answer: 57.1 µM

Question: What about the inhibition [5] of the same compound?
Answer: inactive

Question: And the inhibition [6]?
Answer: Dose-dependent effect

Question: And the inhibition [7]?
Answer: inactive

Question: What about the inhibition [8] of the same compound?
Answer: 45.2%

Question: With `CP(=O)(O)C1=CCNCC1` as the compound, how does the IC50 [1] read?
Answer: 2.22 µM

Question: What about the IC50 [4] of the same compound?
Answer: 22.1 µM

Question: What about the Kb ([4]; Oocyte) of the same compound?
Answer: 14.9 µM

Question: And the EC50 [9]?
Answer: 500 µM

Question: For `O=C(O)C1CCP(=O)(O)C1` (stereo not drawn), which inhibition [10] is on record?
Answer: inactive

Question: What about the inhibition [11] of the same compound?
Answer: inactive

Question: Which IC50 [1] does the source give for `N=C(N)NC1CCP(=O)(O)C1` (stereo not drawn) here?
Answer: 29.7 µM

Question: What about the Kb [1] of the same compound?
Answer: 10 µM

Question: What about the IC50 [4] of the same compound?
Answer: 51.3 µM

Question: And the inhibition [5]?
Answer: 29.2%

Question: Which results are given for `O=P1(O)CCC(CO)C1` (stereo not drawn)?
Answer: inhibition [10]: inactive; inhibition [11]: inactive

Question: `NC1CCP(=O)(O)C1` (stereo not drawn) was tested. Which inhibition [12] did it give?
Answer: inactive

Question: And the inhibition [5]?
Answer: inactive

Source: ChEMBL document CHEMBL1671823, “Novel Cyclic Phosphinic Acids as GABAC ρ Receptor Antagonists: Design, Synthesis, and Pharmacology” (ACS Med Chem Lett, 2011)
